Laboratory results published in patent US11034661B2, “Substituted N′-hydroxycarbamimidoyl-1,2,5-oxadiazole compounds as indoleamine 2,3-dioxygenase IDO inhibitors” (Merck Sharp & Dohme Corp., priority 2017, dated 2021).

Columns and labels:
HIS-tagged IDO1 protein = HIS-tagged IDO1 protein (Homo sapiens (Human), UniProt P14902); assay: IDO1 Enzyme Assay; format: biochemical; conditions: recombinant IDO1 40 nM, tryptophan substrate, fluorescence readout
Protocol: Biological Assays IDO1 Enzyme Assay
(§1) Compounds to be tested were serially diluted in ten 3-fold steps in DMSO starting from 10 mM DMSO stocks. Compound dilutions or DMSO alone were then dispensed from the dilution plate into a Greiner black 384-well assay plate (catalog #781086) using an Echo 555 acoustic liquid handler (Labcyte).
HIS-tagged IDO1 protein was recombinantly expressed in Escherichia coli using ZYP5052 autoinduction media supplemented with 500 μM delta aminolevulinic acid for 48 hours at 16 degrees Celsius. IDO1 protein was purified using Ni^2+-affinity resin and size exclusion chromatography. Purified protein was then diluted in assay buffer (50 mM Tris pH 7.0, 1% glycerol, 20 μM methylene blue, 0.05% Tween-20, 20 mM sodium ascorbate, 100 units/mL catalase to obtain a final IDO1 concentration of 40 nM. IDO1 solution […] or buffer alone […] was dispensed to wells of the assay plate using a BioRAPTR liquid dispenser (Beckman Coulter). Assay plates containing compound and IDO1 enzyme were incubated at room temperature for 30 minutes. Afterwards, 10 μL of 400 μM tryptophan in assay buffer were added to each well of the assay plate using a BioRAPTR liquid dispenser. Plates were incubated at room temperature for 60 minutes and reactions were quenched by addition of 10 μL of 0.5 M methyl isonipecotate in dimethyl sulfoxide. Plates were sealed and incubated at 37 degrees Celsius for 4 hours or 50 degrees Celsius for 2 hours. The plates are allowed to cool and then centrifuged for 1 minute at 1000×g. The resulting fluorescence was measured in an Envision plate reader (Perkin Elmer) with a 400/25 nm excitation filter and an 510/20 nm emission filter.
Potencies were calculated by linear least squares fit to the four parameter logistic IC50 equation.

[1] = molecular target: IDO1 in Hela cells stimulated with IFNγ (Homo sapiens (Human), UniProt P14902); assay: IDO1 Cellular Assay in Hela Cells Stimulated with IFNγ; format: cell-based; conditions: IFNγ 100 ng/mL, about 48 hours, fluorescence readout, read-out: IDO1 HELA Cell Assay, IC50
Protocol: IDO1 Cellular Assay in Hela Cells Stimulated with IFNγ
Hela cells were cultured in complete Hela culture medium (90% EMEM, 10% heat-inactivated fetal bovine serum) and expanded to about 1×10^9 cells. The cells were then collected and frozen down at 10×10^6 cells/vial in 1 mL frozen medium (90% complete Hela culture medium, 10% DMSO)
as §1, with “stocks in Echo low volume plate(s).” for “stocks.”, “plate(s)” for “plate”, “into” for “into a”, “#781086, 50 nL/well)” for “#781086)”, “550” for “555”
Frozen Hela cells were thawed and transferred into Hela assay medium (99% complete Hela culture medium, 1% Pen/Strep) with 20 mL medium/vial of cells. The cells were spun down at 250 g in a table top centrifuge for 5 min and suspended in same volume of Hela assay medium. The cells were then counted and adjusted to a density of 2×10^5 cells/ml in Hela assay medium. Sterile L-tryptophan were added to the cells with final concentration of 300 uM L-tryptophan. A small aliquot (2 mL/plate) of Hela cells were set aside and were not treated with IFNγ, to serve as the Max-E control. The rest of Hela cells were added with sterile IFNγ (Cat #285-IF, R & D systems) with a final concentration of 100 ng/mL.
Hela cells with and without IFNγ were dispensed to the respective wells of 384-well assay plates containing the compounds. The plates were incubated for about 48 hours at a 37° C., 5% CO2 incubator. Afterwards, 12 μL of 0.5 M methyl isonipecotate in dimethyl sulfoxide were added into each well and the plates were sealed and incubated at 37° C. without CO2 overnight. The plates were centrifuged for 1 min at 200×g. The resulting fluorescence was measured in a Spectramax plate reader (Molecular Devices) with a 400 nm excitation filter and a 510 nm emission filter.
The fluorescence intensity of each well was corrected for the background observed in wells with non-IFNγ-treated cells and was expressed as a fraction of the intensity observed in wells of IFNγ-treated cells and DMSO only. Potencies were calculated by linear least squares fit to the four parameter logistic IC50 equation.

Chain of HIS-tagged IDO1 protein (P14902 whole entry): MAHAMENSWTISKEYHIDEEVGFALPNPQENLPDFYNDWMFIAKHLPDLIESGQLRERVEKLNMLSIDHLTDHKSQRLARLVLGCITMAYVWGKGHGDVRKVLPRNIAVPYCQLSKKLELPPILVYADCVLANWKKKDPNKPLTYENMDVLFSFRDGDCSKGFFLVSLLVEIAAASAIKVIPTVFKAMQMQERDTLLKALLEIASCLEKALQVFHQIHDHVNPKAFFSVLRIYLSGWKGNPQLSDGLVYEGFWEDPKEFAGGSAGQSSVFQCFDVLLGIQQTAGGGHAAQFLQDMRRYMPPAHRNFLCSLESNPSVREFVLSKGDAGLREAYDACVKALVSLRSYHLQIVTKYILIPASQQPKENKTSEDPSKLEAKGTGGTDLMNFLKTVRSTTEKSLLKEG
Chain of IDO1 in Hela cells stimulated with IFNγ (P14902 whole entry): as above

| IC50 (HIS-tagged IDO1 protein) [nM] | IC50 [1] [nM] | SMILES |
| --- | --- | --- |
| 364 | 298 | O=C(CO)N1CC(COc2nonc2/C(=N/O)N[C@H]2Cc3ccc(F)cc32)C1 [Example 59, N-[(7S)-4-fluorobicyclo[4.2.0]octa-1,3,5-trien-7-yl]-N′-hydroxy-4-{[1-(hydroxyacetyl)azetidin-3-yl]methoxy}-1,2,5-oxadiazole-3-carboximidamide] |
| 1810 | 1290 | CC(=O)N[C@@H](CO)COc1nonc1/C(=N/O)N[C@H]1Cc2ccc(F)cc21 [Example 52, N-{(2S)-1-[(4-{N-[(7S)-4-fluorobicyclo[4.2.0]octa-1,3,5-trien-7-yl]-N′-hydroxycarbamimidoyl}-1,2,5-oxadiazol-3-yl)oxy]-3-hydroxypropan-2-yl}acetamide] |
| 1070 | 1340 | CC(=O)N[C@H](CO)COc1nonc1/C(=N/O)N[C@H]1Cc2ccc(F)cc21 [Example 51, N-{(2R)-1-[(4-{N-[(7S)-4-fluorobicyclo[4.2.0]octa-1,3,5-trien-7-yl]-N′-hydroxycarbamimidoyl}-1,2,5-oxadiazol-3-yl)oxy]-3-hydroxypropan-2-yl}acetamide] |
| 747 | 750 | NS(=O)(=O)N1CC[C@@H](Oc2nonc2/C(=N/O)N[C@H]2Cc3ccc(F)cc32)C1 [Example 31, N-[(7S)-4-fluorobicyclo[4.2.0]octa-1,3,5-trien-7-yl]-N′-hydroxy-4-{[(3R)-1-sulfamoylpyrrolidin-3-yl]oxy}-1,2,5-oxadiazole-3-carboximidamide] |
| 100 | 335 | C[C@@H](O)CNC(=O)COc1nonc1/C(=N/O)N[C@H]1Cc2ccc(F)cc21 [Example 10, 2-[(4-{N-[(7S)-4-fluorobicyclo[4.2.0]octa-1,3,5-trien-7-yl]-N′-hydroxycarbamimidoyl}-1,2,5-oxadiazol-3-yl)oxy]-N-[(2R)-2-hydroxypropyl]acetamide] |
| 516 | 822 | O=C(CO)N1CCC(Oc2nonc2/C(=N/O)N[C@H]2Cc3ccc(F)cc32)CC1 [Example 50, N-[(7S)-4-fluorobicyclo[4.2.0]octa-1,3,5-trien-7-yl]-N′-hydroxy-4-{[1-(hydroxyacetyl)piperidin-4-yl]oxy}-1,2,5-oxadiazole-3-carboximidamide] |
| 2150 | 2030 | CC(C)(COc1nonc1/C(=N/O)N[C@H]1Cc2ccc(F)cc21)NC(=O)CO [Example 35, N-{1-[(4-{N-[(7S)-4-fluorobicyclo[4.2.0]octa-1,3,5-trien-7-yl]-N′-hydroxycarbamimidoyl}-1,2,5-oxadiazol-3-yl)oxy]-2-methylpropan-2-yl}-2-hydroxyacetamide] |
| 308 | 340 | NS(=O)(=O)N1CC[C@H](Oc2nonc2/C(=N/O)N[C@H]2Cc3ccc(F)cc32)C1 [Example 32, N-[(7S)-4-fluorobicyclo[4.2.0]octa-1,3,5-trien-7-yl]-N′-hydroxy-4-{[(3S)-1-sulfamoylpyrrolidin-3-yl]oxy}-1,2,5-oxadiazole-3-carboximidamide] |
| 2380 | 1040 | CC(=O)NC[C@H](C)Oc1nonc1/C(=N/O)N[C@H]1Cc2ccc(F)cc21 [Example 40, N-{(2S)-2-[(4-{N-[(7S)-4-fluorobicyclo[4.2.0]octa-1,3,5-trien-7-yl]-N′-hydroxycarbamimidoyl}-1,2,5-oxadiazol-3-yl)oxy]propyl}acetamide] |
| 479 | 685 | NC(=O)N(CCO)CCOc1nonc1/C(=N/O)NC1Cc2ccc(F)cc21 (stereo not shown) [Example 15, 4-{2-[carbamoyl(2-hydroxyethyl)amino]ethoxy}-N-(4-fluorobicyclo[4.2.0]octa-1,3,5-trien-7-yl)-N′-hydroxy-1,2,5-oxadiazole-3-carboximidamide] |
| 214 | 284 | O=C(NCCOc1nonc1/C(=N/O)N[C@H]1Cc2ccc(F)cc21)[C@@H](O)CO [Example 26, (2S)-N-{2-[(4-{N-[(7S)-4-fluorobicyclo[4.2.0]octa-1,3,5-trien-7-yl]-N′-hydroxycarbamimidoyl}-1,2,5-oxadiazol-3-yl)oxy]ethyl}-2,3-dihydroxypropanamide] |
| 1550 | 848 | C[C@@H](CNS(N)(=O)=O)Oc1nonc1/C(=N/O)N[C@H]1Cc2ccc(F)cc21 [Example 67, (Z)-N-((S)-4-fluorobicyclo[4.2.0]octa-1(6),2,4-trien-7-yl)-N′-hydroxy-4-(((S)-1-(sulfamoylamino)propan-2-yl)oxy)-1,2,5-oxadiazole-3-carboximidamide] |
| 413 | 624 | C[C@H](O)CNC(=O)COc1nonc1/C(=N/O)N[C@H]1Cc2ccc(F)cc21 [Example 9, 2-[(4-{N-[(7S)-4-fluorobicyclo[4.2.0]octa-1,3,5-trien-7-yl]-N′-hydroxycarbamimidoyl}-1,2,5-oxadiazol-3-yl)oxy]-N-[(2S)-2-hydroxypropyl]acetamide] |
| 302 | 2360 | O=C(NCCOc1nonc1/C(=N/O)N[C@H]1Cc2ccc(F)cc21)[C@H](O)CO [Example 20, (2R)-N-{2-[(4-{N-[(7S)-4-fluorobicyclo[4.2.0]octa-1,3,5-trien-7-yl]-N′-hydroxycarbamimidoyl}-1,2,5-oxadiazol-3-yl)oxy]ethyl}-2,3-dihydroxypropanamide] |
| 73.1 | 147 | NS(=O)(=O)CCCOc1nonc1/C(=N/O)N[C@H]1Cc2ccc(F)cc21 [Example 29, N-[(7S)-4-fluorobicyclo[4.2.0]octa-1,3,5-trien-7-yl]-N′-hydroxy-4-(3-sulfamoylpropoxy)-1,2,5-oxadiazole-3-carboximidamide] |
| 1390 | 1440 | O=C(CO)N1CC[C@@H](Oc2nonc2/C(=N/O)N[C@H]2Cc3ccc(F)cc32)C1 [Example 60, N-[(7S)-4-fluorobicyclo[4.2.0]octa-1,3,5-trien-7-yl]-N′-hydroxy-4-{[(3R)-1-(hydroxyacetyl)pyrrolidin-3-yl]oxy}-1,2,5-oxadiazole-3-carboximidamide] |
| 216 | 328 | CC(=O)NC[C@@H](CO)Oc1nonc1/C(=N/O)N[C@H]1Cc2ccc(F)cc21 [Example 55, N-{(2S)-2-[(4-{N-[(7S)-4-fluorobicyclo[4.2.0]octa-1,3,5-trien-7-yl]-N′-hydroxycarbamimidoyl}-1,2,5-oxadiazol-3-yl)oxy]-3-hydroxypropyl}acetamide] |
| 24 | 44 | NS(=O)(=O)N1CC(Oc2nonc2/C(=N/O)N[C@H]2Cc3ccc(F)cc32)C1 [Example 62, (S,Z)-N-(4-fluorobicyclo[4.2.0]octa-1(6),2,4-trien-7-yl)-N′-hydroxy-4-((1-sulfamoylazetidin-3-yl)oxy)-1,2,5-oxadiazole-3-carboximidamide] |
| 1490 | 1340 | O=C(CO)N1CC[C@H]1COc1nonc1/C(=N/O)N[C@H]1Cc2ccc(F)cc21 [Example 54, N-[(7S)-4-fluorobicyclo[4.2.0]octa-1,3,5-trien-7-yl]-N′-hydroxy-4-{[(2S)-1-(hydroxyacetyl)azetidin-2-yl]methoxy}-1,2,5-oxadiazole-3-carboximidamide] |
| 990 | 1280 | O=C(COc1nonc1/C(=N/O)N[C@H]1Cc2ccc(F)cc21)N1CC[C@H](O)C1 [Example 45, N-[(7S)-4-fluorobicyclo[4.2.0]octa-1,3,5-trien-7-yl]-N′-hydroxy-4-{2-[(3S)-3-hydroxypyrrolidin-1-yl]-2-oxoethoxy}-1,2,5-oxadiazole-3-carboximidamide] |
